Measured values taken from PubChem BioAssay AID1963856 (Molecular Pharmacology Branch, DTP, NCI, 2024).

Test system: LG0567-F671-PDC KRAS tumor spheroid viability
Test: Anticancer human tumor LG0567-F671-PDC patient-derived lung adenocarcinoma cell line growth inhibition [KRAS2]
Conditions: spheroids with HUVEC and MSC; for viability, T/C: stronger effect = lower value
Summary of the method: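 Combination screen of spheroid viability in tumor-cell co-cultures with endothelial (HUVEC) and mesenchymal stem cell stroma. Each agent was tested in half-log dilutions, topping at clinical Cmax or at 10 microM without a known Cmax.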

[1] = curve of first compound, second compound 0.1 µM
[2] = curve of first compound, second compound 0.316 µM
[3] = curve of first compound, second compound 1 µM
[4] = curve of first compound, second compound 3.16 µM
[5] = curve of first compound, second compound 10 µM
[6] = second compound 0.1 µM, first compound 0.0316 µM
[7] = second compound 0.1 µM, first compound 0.1 µM
[8] = second compound 0.1 µM, first compound 0.316 µM
[9] = second compound 0.1 µM, first compound 1 µM
[10] = second compound 0.1 µM, first compound 3.16 µM
[11] = second compound 0.1 µM, first compound 10 µM
[12] = second compound 0.316 µM, first compound 0.0316 µM
[13] = second compound 0.316 µM, first compound 0.1 µM
[14] = second compound 0.316 µM, first compound 0.316 µM
[15] = second compound 0.316 µM, first compound 1 µM
[16] = second compound 0.316 µM, first compound 3.16 µM
[17] = second compound 0.316 µM, first compound 10 µM
[18] = second compound 1 µM, first compound 0.0316 µM
[19] = second compound 1 µM, first compound 0.1 µM
[20] = second compound 1 µM, first compound 0.316 µM
[21] = second compound 1 µM, first compound 1 µM
[22] = second compound 1 µM, first compound 3.16 µM
[23] = second compound 1 µM, first compound 10 µM
[24] = second compound 3.16 µM, first compound 0.0316 µM
[25] = second compound 3.16 µM, first compound 0.1 µM
[26] = second compound 3.16 µM, first compound 0.316 µM
[27] = second compound 3.16 µM, first compound 1 µM
[28] = second compound 3.16 µM, first compound 3.16 µM
[29] = second compound 3.16 µM, first compound 10 µM
[30] = second compound 10 µM, first compound 0.0316 µM
[31] = second compound 10 µM, first compound 0.1 µM
[32] = second compound 10 µM, first compound 0.316 µM
[33] = second compound 10 µM, first compound 1 µM
[34] = second compound 10 µM, first compound 3.16 µM
[35] = second compound 10 µM, first compound 10 µM
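Note: drug exposure lasted seven days after spheroids formed for three days.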
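Throughout, for viability, T/C: 100% = DMSO vehicle control viability.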

Row | SMILES | IC50 [1] [µM] | IC50 [2] [µM] | IC50 [3] [µM] | IC50 [4] [µM] | IC50 [5] [µM] | viability, T/C [6] [%] | viability, T/C [7] [%] | viability, T/C [8] [%] | viability, T/C [9] [%] | viability, T/C [10] [%] | viability, T/C [12] [%] | viability, T/C [13] [%] | viability, T/C [14] [%] | viability, T/C [15] [%] | viability, T/C [16] [%] | viability, T/C [24] [%] | viability, T/C [25] [%] | viability, T/C [26] [%] | viability, T/C [27] [%] | viability, T/C [28] [%] | further results
1 | CC1(C)CCC(CN2CCN(c3ccc(C(=O)NS(=O)(=O)c4ccc(NCC5CCOCC5)c([N+](=O)[O-])c4)c(Oc4cnc5[nH]ccc5c4)c3)CC2)=C(c2ccc(Cl)cc2)C1 + CNCc1ccccc1-c1csc(C(C)Nc2nc(C)nc3cc(OC)c(OC)cc23)c1 | 1.63 | 1.47 | 1.42 | < 0.0316 | < 0.0316 | 72.6 | 68.1 | 70.6 | 71.3 | 22 | 69.5 | 63.9 | 61.2 | 70.2 | 17.9 | 0.33 | 0.44 | 0.44 | 2.14 | 1.73 | viability, T/C [11]: 10.7%; viability, T/C [17]: 8.6%; viability, T/C [18]: 69.4%; viability, T/C [19]: 77.7%; viability, T/C [20]: 62%; viability, T/C [21]: 64.3%; viability, T/C [22]: 18.3%; viability, T/C [23]: 2.9%; viability, T/C [29]: 0.34%; viability, T/C [30]: 0.43%; viability, T/C [31]: 0.89%; viability, T/C [32]: 0.6%; viability, T/C [33]: 0.39%; viability, T/C [34]: 2.18%; viability, T/C [35]: 0.44%
2 | CCNC(=O)CC1N=C(c2ccc(Cl)cc2)c2cc(OC)ccc2-n2c(C)nnc21 (stereo not given) + CC1OCC2(CCN(c3cnc(Sc4ccnc(N)c4Cl)c(N)n3)CC2)C1N | 0.278 | 0.0399 | < 0.0316 | < 0.0316 | < 0.0316 | 69.1 | 71.4 | 46.2 | 30.9 | 23.5 | 48.4 | 50.9 | 32 | 20.2 | 14.3 | 22.7 | 18.6 | 12.2 | 7.87 | 4.55 | viability, T/C [11]: 23.8%; viability, T/C [17]: 14.1%; viability, T/C [18]: 34.5%; viability, T/C [19]: 28.7%; viability, T/C [20]: 21.5%; viability, T/C [21]: 11.2%; viability, T/C [22]: 8.48%; viability, T/C [23]: 8.48%; viability, T/C [29]: 4.52%; viability, T/C [30]: 10.9%; viability, T/C [31]: 11.7%; viability, T/C [32]: 7.18%; viability, T/C [33]: 2.24%; viability, T/C [34]: 1.59%; viability, T/C [35]: 0.97%
3 | COc1cc2nccc(Oc3ccc(NC(=O)C4(C(=O)Nc5ccc(F)cc5)CC4)cc3)c2cc1OC + C=CC(=O)N1CCN(c2nc(OCC3CCCN3C)nc3c2CCN(c2cccc4cccc(C)c24)C3)CC1CC#N | < 0.0316 | < 0.0316 | < 0.0316 | < 0.0316 | – | 23.5 | 22.9 | 26.6 | 18.4 | 10.2 | 25.2 | 24.8 | 28.4 | 17.2 | 10.2 | 13.2 | 18.7 | 11.4 | 17.6 | 1.46 | IC50 (curve of first compound, second compound 0.0316 µM): < 0.0316 µM; viability, T/C (second compound 0.0316 µM, first compound 0.0316 µM): 27%; viability, T/C (second compound 0.0316 µM, first compound 0.1 µM): 35.9%; viability, T/C (second compound 0.0316 µM, first compound 0.316 µM): 23.9%; viability, T/C (second compound 0.0316 µM, first compound 1 µM): 20.4%; viability, T/C (second compound 0.0316 µM, first compound 3.16 µM): 17.8%; viability, T/C (second compound 0.0316 µM, first compound 10 µM): 52.5%; viability, T/C [11]: 45.3%; viability, T/C [17]: 41.3%; viability, T/C [18]: 30.9%; viability, T/C [19]: 27.6%; viability, T/C [20]: 23.7%; viability, T/C [21]: 20.9%; viability, T/C [22]: 13.3%; viability, T/C [23]: 33%; viability, T/C [29]: 1.76%
4 | Cn1ncnc1[C@H]1c2n[nH]c(=O)c3cc(F)cc(c23)N[C@@H]1c1ccc(F)cc1 | – | – | – | – | – | – | – | – | – | – | – | – | – | – | – | – | – | – | – | – | viability, T/C (compound 0.000316 µM): 99.5% [middle of 5 runs]; viability, T/C (compound 0.001 µM): 106% [middle of 5 runs]; viability, T/C (compound 0.00316 µM): 101% [middle of 5 runs]; viability, T/C (compound 0.01 µM): 102% [middle of 5 runs]; viability, T/C (compound 0.0316 µM): 104% [middle of 5 runs]; viability, T/C (compound 0.1 µM): 90.9% [middle of 5 runs]; IC50 (curve of compound): > 0.1 µM
5 | Cn1nccc1Nc1nccc(-c2cc3c(s2)C(C)(C)N(CCN2CCOCC2)C3=O)n1 + CC1OCC2(CCN(c3cnc(Sc4ccnc(N)c4Cl)c(N)n3)CC2)C1N | 0.18 | < 0.0316 | < 0.0316 | < 0.0316 | < 0.0316 | 60.6 | 52 | 46.3 | 38.9 | 24.1 | 36.8 | 35.9 | 29.7 | 24.3 | 21.5 | 18.6 | 19.6 | 17.9 | 9.57 | 7.17 | viability, T/C [11]: 23.4%; viability, T/C [17]: 18.2%; viability, T/C [18]: 32.6%; viability, T/C [19]: 29.5%; viability, T/C [20]: 21%; viability, T/C [21]: 18.3%; viability, T/C [22]: 16.4%; viability, T/C [23]: 12.4%; viability, T/C [29]: 10.8%; viability, T/C [30]: 10.2%; viability, T/C [31]: 10.7%; viability, T/C [32]: 10.5%; viability, T/C [33]: 4.14%; viability, T/C [34]: 3.55%; viability, T/C [35]: 5.13%
6 | CC(=O)OC12COC1CC(O)C1(C)C(=O)C(O)C3=C(C)C(OC(=O)C(O)C(NC(=O)OC(C)(C)C)c4ccccc4)CC(O)(C(OC(=O)c4ccccc4)C21)C3(C)C (stereo not given) + CC1OCC2(CCN(c3cnc(Sc4ccnc(N)c4Cl)c(N)n3)CC2)C1N | < 0.01 | < 0.01 | – | < 0.01 | < 0.01 | 39.4 | 38.7 | 40.4 | 48 | 38.6 | 26.7 | 24.9 | 22.1 | 28.1 | 20.6 | 12.3 | 10.3 | 10.6 | 11.9 | 10.3 | viability, T/C (second compound 0.1 µM, first compound 0.01 µM): 41.6%; viability, T/C (second compound 0.316 µM, first compound 0.01 µM): 26.7%; viability, T/C (second compound 3.16 µM, first compound 0.01 µM): 14.7%; viability, T/C (second compound 10 µM, first compound 0.01 µM): 14.9%; viability, T/C [30]: 9.36%; viability, T/C [31]: 11.2%; viability, T/C [32]: 9.93%; viability, T/C [33]: 12.9%; viability, T/C [34]: 9.85%
